Columns and labels:
Format in all cases: cell-based, murine
WT-1 brown preadipocytes = assay: Seahorse Bioanalyzer cellular respiration in WT-1 brown preadipocytes; details: growth media, two days
Source text: The Seahorse XF24 (Seahorse Bioscience, http://www.seahorsebio.com/) was utilized for respirometry to measure oxygen consumption rates (OCR; indicating oxidative phosphorylation) and extracellular acidification rates (ECAR; indicating extracellular pH) in mature brown adipocytes. The cell plates and assay cartridges for the Seahorse XF24 have four ports allowing for drug delivery to individual wells during measurement of the metabolic parameters. For a typical bioenergetic profile, cells are first treated with oligomycin to block ATP synthase, FCCP as an uncoupler and Rotenone to block Complex 1 of the ETC (all from Sigma). Example 2 provides additional details regarding the general method. […]
A profile of cellular respiration was developed by utilizing well-characterized mitochondrial toxins, as described in FIG. 5B. First, basal respiration was measured, followed by injection of oligomycin (an inhibitor of ATP synthase which allows measurement of ATP turnover). Then, the uncoupler FCCP (carbonilcyanide p-triflouromethoxyphenylhydrazone) was injected to measure respiratory capacity, followed by the complex 1 inhibitor rotenone (which prevents electron transfer activity and leaves only non-mitochondrial activity to be measured). […]
The role of PGs in regulating mitochondrial function and cellular glucose uptake was also assessed. […]

LDHA, PDK1, PKM2 = assay: LDHA, PDK1 and PKM2 mRNA expression in WT-1 cells; details: WT-1, 24 hours; vs vehicle
Experimental: To test the role of specific prostaglandins (PGs) in activating UCP1 expression, WT-1 brown adipocytes were pretreated with PGE2, PGI2 and FGF6 for 24 hours. mRNA expression levels of UCP1, PTGS2, LDHA, PDK1 and PKM2 were then measured.

UCP1 = UCP1 mRNA expression (Q-RT-PCR) in WT-1 brown preadipocytes; details: WT-1, 24 hours; vs vehicle
Experimental: Total RNA was isolated with QIAzol lysis reagent (Qiagen, Valencia, Calif.) and purified by RNeasy Mini columns (Qiagen) following the manufacture's instructions. cDNA was prepared from total RNA using the Advantage RT-PCR kit (BD Biosciences, Palo Alto, Calif.) according to manufacturer's instructions. Diluted cDNA was used in a PCR reaction with SYBR Green Master Mix (Applied Biosystems, Foster City, Calif.) and primers specifically designed for detection of the gene of interest. PCR reactions were run in duplicate for each sample and quantitated in the ABI Sequence Detection System (Applied Biosystems). Data were expressed as arbitrary units after normalization to levels of expression of internal controls for each sample. Sequences of primers for specific genes are each obtained from the published literature or designed using publically available gene sequence databases. Unless otherwise indicated, gene expression data described in the examples below was obtained using QPCR.
The effect of FGF6 on differentiation of WT-1 murine brown preadipocytes was also examined. WT-1 cells can be induced to undergo brown adipocyte differentiation, characterized by lipid accumulation and expression of adipogenic and brown fat markers, as described above (Klein et al. (1999) J Biol Chem 274:34795; Tseng et al. (2005) Nat Cell Biol 7:601). WT-1 cells were treated with FGF6 in growth media (DMEM+10% FBS), a vehicle control (“control” or “C” referred to in FIGS. 3A-D), or induction media (“induction” or “I” referred to in FIGS. 3A-D) as described above for seven days. Following the treatment, cells were examined for the color of the culture media in combination with oil Red O staining, expression of adipogenic markers, expression of brown fat markers, immunofluorescent staining of cells with UCP1 and DPAI, and Western blot analysis to determine the presence of UCP1 and β-tubulin. The results are described in FIGS. 3A to 3D.
UCP1 mRNA expression in brown adipocyte cells was determined at FGF6 concentrations ranging from 0 to 300 ng/ml in the absence of induction cocktail.
In order to determine the length of time necessary to induce UCP1 expression upon exposure to of cells to FGF6, an experiment was performed whereby FGF6 was administered to brown preadipocytes at a concentration of 200 ng/ml and UCP1 expression was determined. FGF21 and a control were also used in the time course experiment. FGF21, a member of the endocrine FGF ligands that has been implicated in the browning of white fat (Fisher F. M. et al., Genes Dev. 26:271-281, 2012). […] FGF6 could acutely induce a significant increase of UCP1 expression as early as 4 hours after a 200 ng/ml dose, as described in FIG. 4B. At 24 hours, the fold-induction of UCP1 mRNA by FGF6 reached 700-fold higher than the untreated cells, as described in FIG. 4B.
To assess FGF6's role in the regulation of mitochondrial activity, FGF6 was stably expressed in WT-1 brown preadipocytes and 3T3-F442A white preadipocytes. Stable cells were generated by viral infection followed by drug selection.
FGF2, FGF6 and FGF9 were used at a dosage of 50 ng/mL, 100 ng/mL, 200 ng/mL or 300 ng/mL. FGF21 was used at the dosage of 50 ng/ml and 500 ng/mL. The concentration of BMP7 was 3.3 nM. RNA was isolated and UCP1 and PPARγ expression levels were evaluated by quantitative reverse transcription polymerase chain reaction (Q-RT-PCR) analysis after 24 hours (i.e., 1 day) (FIG. 14A), 2 days (FIG. 14B), 5 days (FIG. 14C) and 7 days (FIG. 14D) of treatment. All experiments were performed triplicate and the data are presented as mean+/−SEM.
FGF2, FGF6 and FGF9 were used at a dosage of 200 ng/mL. FGF21 was used at a dosage of 500 ng/mL. The concentration of BMP7 was 3.3 nM. mRNA was isolated and UCP1 and PPARγ expression levels were evaluated by quantitative reverse transcription polymerase chain reaction (Q-RT-PCR) analysis after 24 hours (i.e., 1 day), 2 days, 5 days and 7 days of treatment (FIG. 15). […]

SMILES | oxygen consumption in WT-1 brown preadipocytes (WT-1 brown preadipocytes) | LDHA mRNA expression (LDHA, PDK1, PKM2) | PDK1 mRNA expression (LDHA, PDK1, PKM2) | PKM2 mRNA expression (LDHA, PDK1, PKM2) | UCP1 mRNA expression (UCP1)
CCCCC[C@H](O)/C=C/[C@H]1[C@H](O)CC(=O)[C@@H]1C/C=C\CCCC(=O)O [PGE2, reference compound] | enhanced | increase | increase | increase | significantly induced
CCCCC[C@H](O)/C=C/[C@@H]1[C@H]2C/C(=C/CCCC(=O)O)O[C@H]2C[C@H]1O [PGI2, reference compound] | enhanced | increase | increase | increase | significantly induced
